Source: the supplement of paper PMC10307832

Each cell line was assayed with Cc1ccccc1C(C(=O)NC1CCCCC1)N(C(=O)Cn1ccnc1C)c1cccc(F)c1 [IDH-C35] + O=C(CCCCCCC(=O)Nc1ccccc1)NO [Vorinostat] (partner 1 µM) (assay: relative viability (nuclei count vs DMSO), 5 days (fraction); higher = more cells survive). Conditions: first compound 0.08 µM.
Summary of the method: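 Relative viability divides the nuclei count in treated wells by that in vehicle wells. Lung cancer cell lines were seeded in 1536-well plates, dosed by pin tool the next day, and fixed and stained after 5 days in one step with final 0.05% Triton X-100, 1% formaldehyde and 1 ug/ml Hoechst. Dosing was a single drug or a fixed anchor-drug dose plus five library-drug doses (not always all listed) in √10 steps, and values are medians of duplicate plates imaged at 4×.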
With H3255 the relative viability was 0.8. For COR-L23, the relative viability was 0.503. Cell Line COR-L 105 has a relative viability of 0.932. LOU-NH91 showed a relative viability of 0.916. ChaGo-K-1 showed a relative viability of 0.758. With NCI-H2405 the relative viability was 1.08. HOP-62 gave a relative viability of 0.532. LU99A gave a relative viability of 0.533. BEN gave a relative viability of 0.576. For HARA, the relative viability was 0.624. With HCC-78 the relative viability was 0.447. Cell Line NCI-H322M has a relative viability of 0.875. LCLC-97TM1 was tested, and the relative viability was 0.706. For NCI-H2009, the relative viability was 0.762. Cell Line A-427 has a relative viability of 0.868. NCI-H441 was tested, and the relative viability was 0.906. NCI-H661 was tested, and the relative viability was 0.753. For NCI-H1734, the relative viability was 0.712. With NCI-H460 the relative viability was 0.723. NCI-H2347 showed a relative viability of 0.4. SK-LU-1 was tested, and the relative viability was 0.733. 201T was tested, and the relative viability was 1. NCI-H1915 showed a relative viability of 0.499. Cell Line HCC-827 has a relative viability of 0.731. Work on LXF-289 yielded a relative viability of 0.768. With NCI-H23 the relative viability was 0.609. For NCI-H647, the relative viability was 0.541. Cell Line CAL-12T has a relative viability of 0.69. With NCI-H1651 the relative viability was 0.539. Work on EPLC-272H yielded a relative viability of 0.314. With NCI-H2228 the relative viability was 0.64. NCI-H1355 showed a relative viability of 0.665.

Same assay, conditions: first compound 0.253 µM
H3255 gave a relative viability of 0.925. Cell Line COR-L23 has a relative viability of 0.421. For COR-L 105, the relative viability was 0.959. For LOU-NH91, the relative viability was 0.946. With ChaGo-K-1 the relative viability was 0.814. For NCI-H2405, the relative viability was 0.956. In the case of HOP-62, the relative viability is reported as 0.708. LU99A gave a relative viability of 0.422. Cell Line BEN has a relative viability of 0.608. In the case of HARA, the relative viability is reported as 0.436. HCC-78 showed a relative viability of 0.484. With NCI-H322M the relative viability was 0.866. In the case of LCLC-97TM1, the relative viability is reported as 0.729. For NCI-H2009, the relative viability was 0.688. A-427 gave a relative viability of 0.796. In the case of NCI-H441, the relative viability is reported as 0.74. In the case of NCI-H661, the relative viability is reported as 0.816. In the case of NCI-H1734, the relative viability is reported as 0.846. With NCI-H460 the relative viability was 0.693. With NCI-H2347 the relative viability was 0.682. For SK-LU-1, the relative viability was 0.752. 201T showed a relative viability of 0.942. NCI-H1915 showed a relative viability of 0.52. With HCC-827 the relative viability was 0.85. LXF-289 was tested, and the relative viability was 0.787. In the case of NCI-H23, the relative viability is reported as 0.582. For NCI-H647, the relative viability was 0.565. CAL-12T was tested, and the relative viability was 0.947. Cell Line NCI-H1651 has a relative viability of 0.592. For EPLC-272H, the relative viability was 0.406. For NCI-H2228, the relative viability was 0.632. For NCI-H1355, the relative viability was 0.691.

Same assay, conditions: first compound 0.8 µM
In the case of H3255, the relative viability is reported as 0.875. COR-L23 showed a relative viability of 0.404. With COR-L 105 the relative viability was 0.722. In the case of LOU-NH91, the relative viability is reported as 0.894. Cell Line ChaGo-K-1 has a relative viability of 0.8. With NCI-H2405 the relative viability was 0.968. HOP-62 gave a relative viability of 0.669. LU99A was tested, and the relative viability was 0.483. With BEN the relative viability was 0.618. HARA was tested, and the relative viability was 0.517. Work on HCC-78 yielded a relative viability of 0.457. NCI-H322M gave a relative viability of 0.798. In the case of LCLC-97TM1, the relative viability is reported as 0.67. NCI-H2009 was tested, and the relative viability was 0.758. With A-427 the relative viability was 0.848. In the case of NCI-H441, the relative viability is reported as 0.787. For NCI-H661, the relative viability was 0.778. In the case of NCI-H1734, the relative viability is reported as 0.83. In the case of NCI-H460, the relative viability is reported as 0.676. With NCI-H2347 the relative viability was 0.531. In the case of SK-LU-1, the relative viability is reported as 0.892. 201T showed a relative viability of 0.946. For NCI-H1915, the relative viability was 0.488. HCC-827 was tested, and the relative viability was 0.811. Cell Line LXF-289 has a relative viability of 0.86. For NCI-H23, the relative viability was 0.578. NCI-H647 gave a relative viability of 0.577. Work on CAL-12T yielded a relative viability of 0.815. NCI-H1651 showed a relative viability of 0.531. For EPLC-272H, the relative viability was 0.515. Cell Line NCI-H2228 has a relative viability of 0.563. In the case of NCI-H1355, the relative viability is reported as 0.601.

Same assay, conditions: first compound 2.53 µM
In the case of H3255, the relative viability is reported as 0.73. Work on COR-L23 yielded a relative viability of 0.408. Work on COR-L 105 yielded a relative viability of 0.803. With LOU-NH91 the relative viability was 0.8. ChaGo-K-1 showed a relative viability of 0.586. With NCI-H2405 the relative viability was 1.24. In the case of HOP-62, the relative viability is reported as 0.434. LU99A was tested, and the relative viability was 0.481. For BEN, the relative viability was 0.568. Cell Line HCC-78 has a relative viability of 0.381. NCI-H322M gave a relative viability of 0.911. With NCI-H2009 the relative viability was 0.69. In the case of A-427, the relative viability is reported as 0.901. In the case of NCI-H441, the relative viability is reported as 0.683. Work on NCI-H661 yielded a relative viability of 0.756. NCI-H1734 showed a relative viability of 0.826. With NCI-H460 the relative viability was 0.725. Cell Line NCI-H2347 has a relative viability of 0.59. With SK-LU-1 the relative viability was 0.831. Cell Line 201T has a relative viability of 0.641. For NCI-H1915, the relative viability was 0.451. In the case of HCC-827, the relative viability is reported as 0.789. LXF-289 showed a relative viability of 0.62. NCI-H23 gave a relative viability of 0.641. In the case of NCI-H647, the relative viability is reported as 0.769. In the case of CAL-12T, the relative viability is reported as 0.882. With NCI-H1651 the relative viability was 0.513. EPLC-272H showed a relative viability of 0.494. Cell Line NCI-H2228 has a relative viability of 0.754. Cell Line NCI-H1355 has a relative viability of 0.646.

Same assay, conditions: first compound 8 µM
In the case of H3255, the relative viability is reported as 0.868. COR-L23 gave a relative viability of 0.409. COR-L 105 was tested, and the relative viability was 0.688. Work on LOU-NH91 yielded a relative viability of 0.888. Work on ChaGo-K-1 yielded a relative viability of 0.68. NCI-H2405 gave a relative viability of 1.02. For HOP-62, the relative viability was 0.628. Cell Line LU99A has a relative viability of 0.505. Work on BEN yielded a relative viability of 0.593. Cell Line HARA has a relative viability of 0.525. HCC-78 showed a relative viability of 0.531. Work on NCI-H322M yielded a relative viability of 0.922. In the case of LCLC-97TM1, the relative viability is reported as 0.436. In the case of NCI-H2009, the relative viability is reported as 0.681. A-427 gave a relative viability of 0.856. NCI-H441 gave a relative viability of 0.887. NCI-H661 was tested, and the relative viability was 0.721. Cell Line NCI-H1734 has a relative viability of 0.815. Cell Line NCI-H460 has a relative viability of 0.649. With NCI-H2347 the relative viability was 0.656. For SK-LU-1, the relative viability was 0.778. 201T showed a relative viability of 0.951. NCI-H1915 was tested, and the relative viability was 0.574. HCC-827 was tested, and the relative viability was 0.868. LXF-289 showed a relative viability of 0.799. Work on NCI-H23 yielded a relative viability of 0.636. For NCI-H647, the relative viability was 0.528. CAL-12T was tested, and the relative viability was 0.791. For NCI-H1651, the relative viability was 0.543. With EPLC-272H the relative viability was 0.403. NCI-H2228 gave a relative viability of 0.648. Work on NCI-H1355 yielded a relative viability of 0.691.
